# Measurements reported in the supplement of paper PMC6045584.
# ± gives the standard deviation of the averaged measurements.
# Experiments:
# [1] = compound: COc1cc([C@@H]2c3cc4c(cc3[C@@H](O[C@@H]3O[C@@H]5CO[C@@H](C)O[C@H]5[C@H](O)[C@H]3O)[C@H]3COC(=O)[C@H]23)OCO4)cc(OC)c1O [ETOPOSIDE]; experiment: surviving fraction relative to DMSO-only wells; higher = less growth inhibition; conditions: exposure time: 5 days
# Procedure, shortened: (§1)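 For each tumour cell line, log-phase cells were put into 384-well plates at 250–500 cells per well, then after 24 hours exposed continuously for five days to inhibitors at 0.5, 1, 5, 10, 50, 100, 500 and 1000 nM. Viability was assessed by CellTiter-Glo luminescence, with surviving fraction expressed relative to the median of DMSO-only wells. Lines were screened three times and retained only if replicate Pearson r exceeded 0.7 and median Z' exceeded 0.3.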
# [2] = compound: NC1(c2ccc(-c3nc4ccn5c(=O)[nH]nc5c4cc3-c3ccccc3)cc2)CCC1 [MK2206]; experiment: as above; conditions: exposure time: 5 days
# Procedure, shortened: as §1
Test System,surviving fraction ([1]; 0.5 nM),surviving fraction ([1]; 1 nM),surviving fraction ([1]; 5 nM),surviving fraction ([1]; 10 nM),surviving fraction ([1]; 50 nM),surviving fraction ([1]; 100 nM),surviving fraction ([1]; 500 nM),surviving fraction ([1]; 1000 nM),surviving fraction ([2]; 0.5 nM),surviving fraction ([2]; 1 nM),surviving fraction ([2]; 5 nM),surviving fraction ([2]; 10 nM),surviving fraction ([2]; 50 nM),surviving fraction ([2]; 100 nM),surviving fraction ([2]; 500 nM),surviving fraction ([2]; 1000 nM)
MDAMB361 BREAST,0.921 ± 0.048,0.848 ± 0.056,0.884 ± 0.055,0.946 ± 0.068,0.958 ± 0.067,0.963 ± 0.091,0.954 ± 0.051,0.972 ± 0.049,0.985 ± 0.072,0.922 ± 0.076,0.826 ± 0.1,0.841 ± 0.031,0.768 ± 0.11,0.608 ± 0.019,0.353 ± 0.024,0.34 ± 0.026
MDAMB436 BREAST,0.957 ± 0.038,1 ± 0.053,1.05 ± 0.079,0.943 ± 0.022,0.873 ± 0.11,0.822 ± 0.045,0.499 ± 0.02,0.416 ± 0.059,1.02 ± 0.14,0.932 ± 0.087,0.954 ± 0.023,0.957 ± 0.068,0.928 ± 0.023,0.924 ± 0.11,0.828 ± 0.14,0.734 ± 0.088
MDAMB453 BREAST,1.07 ± 0.098,1.13 ± 0.14,1.13 ± 0.057,1.13 ± 0.07,1.16 ± 0.046,1.15 ± 0.076,1.14 ± 0.12,0.984 ± 0.078,1.1 ± 0.093,1.08 ± 0.039,1.11 ± 0.041,1.15 ± 0.035,1.12 ± 0.072,0.846 ± 0.013,0.327 ± 0.054,0.266 ± 0.019
MDAMB468 BREAST,1.1 ± 0.11,1.06 ± 0.013,1.14 ± 0.065,1.13 ± 0.038,1.15 ± 0.12,1.25 ± 0.089,1.09 ± 0.072,0.937 ± 0.19,1.07 ± 0.052,1.1 ± 0.076,1.1 ± 0.067,1.09 ± 0.052,0.966 ± 0.06,0.939 ± 0.073,0.666 ± 0.0078,0.595 ± 0.014
MFM223 BREAST,1.1 ± 0.056,1.19 ± 0.14,1.17 ± 0.12,1.07 ± 0.038,1.12 ± 0.035,1.06 ± 0.035,0.721 ± 0.032,0.729 ± 0.052,1.14 ± 0.047,1.12 ± 0.014,1.06 ± 0.038,1.14 ± 0.16,0.793 ± 0.077,0.661 ± 0.087,0.314 ± 0.053,0.224 ± 0.011
MG63 BONE,1.01 ± 0.033,0.998 ± 0.038,1.05 ± 0.059,1.06 ± 0.036,1.06 ± 0.052,1.05 ± 0.066,0.778 ± 0.043,0.265 ± 0.016,0.987 ± 0.01,1.06 ± 0.049,1.04 ± 0.03,1.09 ± 0.047,0.95 ± 0.016,0.961 ± 0.03,0.793 ± 0.019,0.748 ± 0.017
MHM BONE,0.994 ± 0.022,0.999 ± 0.011,1.01 ± 0.021,1.001 ± 0.007,1.02 ± 0.016,1.02 ± 0.045,0.894 ± 0.018,0.784 ± 0.024,0.981 ± 0.021,0.9797 ± 0.0065,1.01 ± 0.024,1.05 ± 0.027,0.963 ± 0.035,0.959 ± 0.026,0.89 ± 0.04,0.8973 ± 0.0085
NCIH441 LUNG,1.03 ± 0.15,1.05 ± 0.037,1 ± 0.04,0.974 ± 0.011,1.01 ± 0.053,0.829 ± 0.05,0.565 ± 0.035,0.524 ± 0.016,1.08 ± 0.034,1.18 ± 0.017,1.11 ± 0.034,1.08 ± 0.11,1.01 ± 0.059,1.07 ± 0.041,1.04 ± 0.073,0.994 ± 0.028
NOS1 BONE,1.11 ± 0.12,1.01 ± 0.099,1.33 ± 0.24,1.19 ± 0.12,0.977 ± 0.08,0.91 ± 0.24,0.601 ± 0.075,0.623 ± 0.074,0.882 ± 0.11,0.883 ± 0.088,1.01 ± 0.1,1.04 ± 0.11,0.807 ± 0.14,0.734 ± 0.011,0.503 ± 0.038,0.454 ± 0.053
NY BONE,1.01 ± 0.033,1.01 ± 0.035,1.07 ± 0.032,1.09 ± 0.066,1.07 ± 0.05,1.06 ± 0.03,0.797 ± 0.033,0.592 ± 0.021,1.03 ± 0.035,1.06 ± 0.024,1.05 ± 0.012,1.05 ± 0.033,0.96 ± 0.047,0.954 ± 0.023,0.882 ± 0.014,0.853 ± 0.017
OS25HAL BONE,1 ± 0.018,0.996 ± 0.018,1.01 ± 0.015,1.01 ± 0.0071,1.07 ± 0.041,1.04 ± 0.019,0.497 ± 0.022,0.231 ± 0.024,0.998 ± 0.042,1.07 ± 0.028,1.07 ± 0.024,1.02 ± 0.026,0.813 ± 0.066,0.631 ± 0.085,0.301 ± 0.035,0.278 ± 0.021
OSHN BONE,1.05 ± 0.025,1.05 ± 0.042,1.06 ± 0.046,1.06 ± 0.041,1.07 ± 0.042,1.07 ± 0.048,0.452 ± 0.042,0.174 ± 0.0076,1.08 ± 0.018,1.12 ± 0.034,1.08 ± 0.021,1.12 ± 0.052,1.05 ± 0.046,1.09 ± 0.038,1.04 ± 0.051,1.09 ± 0.086
PCI30 HEADNECK,0.943 ± 0.1,1.03 ± 0.025,1.02 ± 0.09,1 ± 0.041,1.07 ± 0.05,1.01 ± 0.053,0.579 ± 0.063,0.424 ± 0.031,0.999 ± 0.021,1.03 ± 0.13,1.01 ± 0.027,1.07 ± 0.035,0.939 ± 0.039,0.874 ± 0.045,0.592 ± 0.033,0.483 ± 0.017
RDES SOFT TISSUE,1.08 ± 0.022,1.16 ± 0.21,1.1 ± 0.11,1.11 ± 0.071,0.854 ± 0.21,1.15 ± 0.3,0.232 ± 0.03,0.0647 ± 0.0021,1.14 ± 0.04,1.27 ± 0.13,1.22 ± 0.074,1.13 ± 0.032,1.06 ± 0.062,1.17 ± 0.1,1.2 ± 0.066,1.104 ± 0.0067
S68 BREAST,0.939 ± 0.27,1.1 ± 0.18,1.01 ± 0.072,1.44 ± 0.12,1.07 ± 0.22,0.776 ± 0.095,0.369 ± 0.016,0.297 ± 0.024,1.15 ± 0.26,0.874 ± 0.16,1.15 ± 0.22,1.14 ± 0.17,0.974 ± 0.22,0.619 ± 0.088,0.229 ± 0.028,0.156 ± 0.044
SAOS2 BONE,1.03 ± 0.027,1.06 ± 0.028,1.17 ± 0.02,1.16 ± 0.049,1.13 ± 0.035,1.147 ± 0.011,0.783 ± 0.04,0.439 ± 0.022,1.08 ± 0.055,1.13 ± 0.041,1.15 ± 0.021,1.14 ± 0.044,0.965 ± 0.063,0.925 ± 0.041,0.676 ± 0.019,0.654 ± 0.038
SCC36 HEADNECK,1.13 ± 0.12,1.05 ± 0.18,1.1 ± 0.12,1.08 ± 0.1,1.02 ± 0.052,1.15 ± 0.086,0.668 ± 0.035,0.512 ± 0.0061,1.07 ± 0.037,1.11 ± 0.085,1.1 ± 0.084,1.18 ± 0.053,0.892 ± 0.025,0.936 ± 0.034,0.504 ± 0.044,0.378 ± 0.032
SCC47 HEADNECK,1.04 ± 0.11,1.05 ± 0.039,1.02 ± 0.025,1.08 ± 0.079,1.11 ± 0.071,1.06 ± 0.084,0.799 ± 0.07,0.575 ± 0.027,1.03 ± 0.051,1.06 ± 0.047,1.14 ± 0.065,1.16 ± 0.046,1.04 ± 0.046,1.07 ± 0.052,0.935 ± 0.091,0.828 ± 0.045
SCC90 HEADNECK,1.02 ± 0.099,1.11 ± 0.12,1.18 ± 0.092,1.2 ± 0.2,1.22 ± 0.15,1.13 ± 0.13,0.999 ± 0.18,0.878 ± 0.21,0.954 ± 0.027,1.01 ± 0.048,0.973 ± 0.073,1.12 ± 0.093,0.887 ± 0.011,0.935 ± 0.082,0.704 ± 0.071,0.586 ± 0.047
